Assay results taken from the supplement of paper PMC10307832.

What was measured:
Assay in all cases: relative viability (nuclei count vs DMSO), 5 days (fraction); higher = more cells survive
LCLC-97TM1 = test system: LCLC-97TM1
Method in brief: (§1)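 Lung cancer cell lines in 1536-well plates got either a single drug or a fixed anchor-drug dose together with five library-drug doses (not always all listed) in √10 steps, by pin tool, on the day after seeding. Nuclei were counted after 5 days, and relative viability is the treated-to-vehicle ratio of nuclei counts. Values are medians of duplicate plates.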

BEN = test system: BEN
Method in brief: as §1

201T = test system: 201T
Method in brief: as §1

LCLC-103H = test system: LCLC-103H
Method in brief: as §1

NCI-H3122 = test system: NCI-H3122
Method in brief: as §1

NCI-H1650 = test system: NCI-H1650
Method in brief: as §1

NCI-H2087 = test system: NCI-H2087
Method in brief: as §1

NCI-H2228 = test system: NCI-H2228
Method in brief: as §1

NCI-H1395 = test system: NCI-H1395
Method in brief: as §1

NCI-H2405 = test system: NCI-H2405
Method in brief: as §1

SK-LU-1 = test system: SK-LU-1
Method in brief: as §1

NCI-H1792 = test system: NCI-H1792
Method in brief: as §1

NCI-H322M = test system: NCI-H322M
Method in brief: as §1

RERF-LC-KJ = test system: RERF-LC-KJ
Method in brief: as §1

NCI-H1944 = test system: NCI-H1944
Method in brief: as §1

NCI-H1793 = test system: NCI-H1793
Method in brief: as §1

HCC-827 = test system: HCC-827
Method in brief: as §1

CAL-12T = test system: CAL-12T
Method in brief: as §1

NCI-H727 = test system: NCI-H727
Method in brief: as §1

NCI-H1437 = test system: NCI-H1437
Method in brief: as §1

NCI-H647 = test system: NCI-H647
Method in brief: as §1

LXF-289 = test system: LXF-289
Method in brief: as §1

`Nc1ccn([C@@H]2O[C@H](CO)[C@@H](O)[C@@H]2O)c(=O)n1` [Cytarabine] + N=C(N)NC(=N)NCCc1ccccc1 [Phenformin] (partner 250 µM) was tested, and the relative viability (LCLC-97TM1; first compound 0.005 µM) was 0.426, the relative viability (LCLC-97TM1; first compound 0.01581 µM) was 0.34 and the relative viability (LCLC-97TM1; first compound 0.05 µM) was 0.354. For the same compound, the relative viability (LCLC-97TM1; first compound 0.1581 µM) was 0.201, the relative viability (LCLC-97TM1; first compound 0.5 µM) was 0.168 and the relative viability (BEN; first compound 0.005 µM) was 0.193. It also gave a relative viability (BEN; first compound 0.01581 µM) of 0.22, a relative viability (BEN; first compound 0.05 µM) of 0.244 and a relative viability (BEN; first compound 0.1581 µM) of 0.195. For the same compound, the relative viability (BEN; first compound 0.5 µM) was 0.212, the relative viability (201T; first compound 0.005 µM) was 0.369 and the relative viability (201T; first compound 0.01581 µM) was 0.432. It also gave a relative viability (201T; first compound 0.05 µM) of 0.428, a relative viability (201T; first compound 0.1581 µM) of 0.352 and a relative viability (201T; first compound 0.5 µM) of 0.356. The relative viability (LCLC-103H; first compound 0.005 µM) was 0.332, the relative viability (LCLC-103H; first compound 0.01581 µM) was 0.365 and the relative viability (LCLC-103H; first compound 0.05 µM) was 0.335. The relative viability (LCLC-103H; first compound 0.1581 µM) was 0.31, the relative viability (LCLC-103H; first compound 0.5 µM) was 0.311 and the relative viability (NCI-H3122; first compound 0.005 µM) was 0.347. The relative viability (NCI-H3122; first compound 0.01581 µM) was 0.323, the relative viability (NCI-H3122; first compound 0.05 µM) was 0.293 and the relative viability (NCI-H3122; first compound 0.1581 µM) was 0.244. The relative viability (NCI-H3122; first compound 0.5 µM) was 0.18, the relative viability (NCI-H1650; first compound 0.005 µM) was 0.386 and the relative viability (NCI-H1650; first compound 0.01581 µM) was 0.263. For the same compound, the relative viability (NCI-H1650; first compound 0.05 µM) was 0.252, the relative viability (NCI-H1650; first compound 0.1581 µM) was 0.177 and the relative viability (NCI-H1650; first compound 0.5 µM) was 0.125. The relative viability (NCI-H2087; first compound 0.005 µM) was 0.384, the relative viability (NCI-H2087; first compound 0.01581 µM) was 0.308 and the relative viability (NCI-H2087; first compound 0.05 µM) was 0.373. It also gave a relative viability (NCI-H2087; first compound 0.1581 µM) of 0.229, a relative viability (NCI-H2087; first compound 0.5 µM) of 0.131 and a relative viability (NCI-H2228; first compound 0.005 µM) of 0.25. It also gave a relative viability (NCI-H2228; first compound 0.01581 µM) of 0.197, a relative viability (NCI-H2228; first compound 0.05 µM) of 0.182 and a relative viability (NCI-H2228; first compound 0.1581 µM) of 0.118. It also gave a relative viability (NCI-H2228; first compound 0.5 µM) of 0.112, a relative viability (NCI-H1395; first compound 0.005 µM) of 0.411 and a relative viability (NCI-H1395; first compound 0.01581 µM) of 0.392. For the same compound, the relative viability (NCI-H1395; first compound 0.05 µM) was 0.353, the relative viability (NCI-H1395; first compound 0.1581 µM) was 0.319 and the relative viability (NCI-H1395; first compound 0.5 µM) was 0.31. The relative viability (NCI-H2405; first compound 0.005 µM) was 0.387, the relative viability (NCI-H2405; first compound 0.01581 µM) was 0.34 and the relative viability (NCI-H2405; first compound 0.05 µM) was 0.288. For the same compound, the relative viability (NCI-H2405; first compound 0.1581 µM) was 0.238, the relative viability (NCI-H2405; first compound 0.5 µM) was 0.258 and the relative viability (SK-LU-1; first compound 0.005 µM) was 0.353. The relative viability (SK-LU-1; first compound 0.01581 µM) was 0.413, the relative viability (SK-LU-1; first compound 0.05 µM) was 0.445 and the relative viability (SK-LU-1; first compound 0.1581 µM) was 0.241. For the same compound, the relative viability (SK-LU-1; first compound 0.5 µM) was 0.2, the relative viability (NCI-H1792; first compound 0.01581 µM) was 0.107 and the relative viability (NCI-H1792; first compound 0.05 µM) was 0.16. It also gave a relative viability (NCI-H1792; first compound 0.1581 µM) of 0.196, a relative viability (NCI-H1792; first compound 0.5 µM) of 0.133 and a relative viability (NCI-H322M; first compound 0.005 µM) of 0.704. For the same compound, the relative viability (NCI-H322M; first compound 0.01581 µM) was 0.614, the relative viability (NCI-H322M; first compound 0.05 µM) was 0.53 and the relative viability (NCI-H322M; first compound 0.1581 µM) was 0.372. It also gave a relative viability (NCI-H322M; first compound 0.5 µM) of 0.337, a relative viability (RERF-LC-KJ; first compound 0.005 µM) of 0.381 and a relative viability (RERF-LC-KJ; first compound 0.01581 µM) of 0.369. For the same compound, the relative viability (RERF-LC-KJ; first compound 0.05 µM) was 0.308, the relative viability (RERF-LC-KJ; first compound 0.1581 µM) was 0.298 and the relative viability (RERF-LC-KJ; first compound 0.5 µM) was 0.274. For the same compound, the relative viability (NCI-H1944; first compound 0.005 µM) was 0.166, the relative viability (NCI-H1944; first compound 0.01581 µM) was 0.184 and the relative viability (NCI-H1944; first compound 0.05 µM) was 0.14. The relative viability (NCI-H1944; first compound 0.1581 µM) was 0.106, the relative viability (NCI-H1944; first compound 0.5 µM) was 0.103 and the relative viability (NCI-H1793; first compound 0.005 µM) was 0.359. The relative viability (NCI-H1793; first compound 0.01581 µM) was 0.34, the relative viability (NCI-H1793; first compound 0.05 µM) was 0.284 and the relative viability (NCI-H1793; first compound 0.1581 µM) was 0.251. The relative viability (NCI-H1793; first compound 0.5 µM) was 0.216, the relative viability (HCC-827; first compound 0.005 µM) was 0.321 and the relative viability (HCC-827; first compound 0.01581 µM) was 0.258. For the same compound, the relative viability (HCC-827; first compound 0.05 µM) was 0.195, the relative viability (HCC-827; first compound 0.1581 µM) was 0.141 and the relative viability (HCC-827; first compound 0.5 µM) was 0.158. For the same compound, the relative viability (CAL-12T; first compound 0.005 µM) was 0.524, the relative viability (CAL-12T; first compound 0.01581 µM) was 0.489 and the relative viability (CAL-12T; first compound 0.05 µM) was 0.638. The relative viability (CAL-12T; first compound 0.1581 µM) was 0.283, the relative viability (CAL-12T; first compound 0.5 µM) was 0.18 and the relative viability (NCI-H727; first compound 0.005 µM) was 0.451. The relative viability (NCI-H727; first compound 0.01581 µM) was 0.479, the relative viability (NCI-H727; first compound 0.05 µM) was 0.486 and the relative viability (NCI-H727; first compound 0.1581 µM) was 0.406. It also gave a relative viability (NCI-H727; first compound 0.5 µM) of 0.429, a relative viability (NCI-H1437; first compound 0.005 µM) of 0.199 and a relative viability (NCI-H1437; first compound 0.01581 µM) of 0.183. The relative viability (NCI-H1437; first compound 0.05 µM) was 0.17, the relative viability (NCI-H1437; first compound 0.5 µM) was 0.105 and the relative viability (NCI-H647; first compound 0.005 µM) was 0.181. It also gave a relative viability (NCI-H647; first compound 0.01581 µM) of 0.204, a relative viability (NCI-H647; first compound 0.05 µM) of 0.193 and a relative viability (NCI-H647; first compound 0.1581 µM) of 0.0662. It also gave a relative viability (NCI-H647; first compound 0.5 µM) of 0.0608, a relative viability (LXF-289; first compound 0.005 µM) of 0.413 and a relative viability (LXF-289; first compound 0.01581 µM) of 0.406. The relative viability (LXF-289; first compound 0.05 µM) was 0.341, the relative viability (LXF-289; first compound 0.1581 µM) was 0.129 and the relative viability (LXF-289; first compound 0.5 µM) was 0.0821.
